From US9808003B2, “Herbicidally active 2-(substituted-phenyl)-cyclopentane-1,3-dione compounds and derivatives thereof” (Syngenta Limited, priority 2013, dated 2017)

Tests used:
Format in all cases: in vivo
[1] = system: Spring Barley “Harrington”; assay: Test 1B glasshouse assay, post-emergence herbicidal activity against cereal crops
Procedure: (§1) Biological Example 1B tests the herbicidal activity of“technical” compounds (i.e. compounds not previously formulated before the test), as the herbicides under test.
(§2) An “instant formulation”, known as the “IF50”, containing 50 g/liter (i.e. 5% w/v) of the “technical” (i.e. unformulated) active ingredient (i.e. the herbicide under test), is prepared by dissolving the active ingredient in a mixture of organic solvents and emulsifier, details of which are provided in the Table below.
(§3) This IF50 is mixed with a small, variable amount of acetone to aid dissolution, before addition of a 0.5% v/v aqueous solution of the adjuvant Adigor™ (an adjuvant containing rapeseed oil methyl ester, ethoxylated alcohols, and a mixture of heavy aromatic hydrocarbons, e.g. available from Syngenta), as the aqueous diluent, to form an aqueous spray solution which contains a predetermined concentration of the active ingredient (which varies depending on the application rate of the active ingredient to the plants) and 0.5% v/v of the adjuvant Adigor™. This aqueous spray solution is suitable for spraying onto plants.
(§4) Seeds of a variety of test species are sown in standard soil in pots. After cultivation for 14 days under controlled conditions in a glasshouse (at 22/16° C., day/night; 16 hours light; 65% humidity), the plants are sprayed post-emergence with the above-mentioned aqueous spray solution containing inter alia the “technical” active ingredient (i.e. the herbicide under test) and the adjuvant Adigor™.
(§5) The test plants are then grown on under controlled conditions in the glasshouse (at 22/16° C., day/night; 16 hours light; 65% humidity) and are watered twice daily. 14 days after application of the test herbicide, the test is evaluated visually for percentage phytotoxicity to the plant (where 100%=total damage to plant; 0%=no damage to plant).
(§6) More specifically, post-emergence herbicidal activity (phytotoxicity) data, on certain tested grassy monocotyledonous weeds (and/or plants of the type Gramineae) and cereal crops in the glasshouse, are measured 14 days after application of the herbicide (14 DAA), typically for inter alia one or more of the following application rates: • (a) a post-emergence application rate of 60 g/ha of the test herbicide with or without 50 g/ha of cloquintocet-mexyl safener, and • (b) a post-emergence application rate of 90 g/ha of the test herbicide with 50 g/ha of cloquintocet-mexyl safener, and • (c) a post-emergence application rate of 120 g/ha of the test herbicide with 50 g/ha of cloquintocet-mexyl safener.
(§7) The cloquintocet-mexyl, when used, is present in the formulation containing the herbicide under test dissolved in acetone plus IF50.
(§8) The range of herbicide application rates tested sometimes includes application rates other than those shown above, and the rates can vary depending on the herbicide under test.
(§9) Herbicidal activity (phytotoxicity) is evaluated visually, and an assessed percentage phytotoxicity score is given for each herbicidal application on each plant species (with 100%=total damage to plant; 0%=no damage to plant; the assessment is recorded in increments of 1%). Two replicates are made for each experiment, and the mean herbicidal activity (phytotoxicity) data is reported.

Winter Wheat “Hereward” = assay: as above
Procedure: as §1, §2, §3, §4, §5, §6, §7, §8, §9

Winter Barley “Suzuka” = assay: as above
Procedure: as §1, §2, §3, §4, §5, §6, §7, §8, §9

[2] = system: Lolium multiflorum (LOLMU); assay: Test 1B glasshouse assay, post-emergence herbicidal activity against grassy weeds; details: 14 DAA
Procedure: as §1, §2, §3, §4, §5, §6, §7, §8, §9
(§10) For compounds A34, A98, A99, A87, A100, A101, A89, A120, A120A, A120B, A23, A127, A128, A89, A112 and A113 the tested weeds were as follows: Avena fatua (AVEFA), Lolium multiflorum (LOLMU), Setaria viridis (SETVI), Poa annua (POAAN), Alopecurus myosuroides (ALOMY). All five of these are grassy monocotyledonous weeds. Except for SETVI, these are all “cool-season” grassy monocotyledonous weeds.

[3] = system: Alopecurus myosuroides (ALOMY); assay: as above; details: 14 DAA
Procedure: as §1, §2, §3, §4, §5, §6, §7, §8, §9, §10

Setaria viridis (SETVI) = assay: as above; details: 14 DAA
Procedure: as §1, §2, §3, §4, §5, §6, §7, §8, §9, §10

Poa annua (POAAN) = assay: as above; details: 14 DAA
Procedure: as §1, §2, §3, §4, §5, §6, §7, §8, §9, §10

Avena fatua (AVEFA) [4] = assay: as above; details: 14 DAA
Procedure: as §1, §2, §3, §4, §5, §6, §7, §8, §9, §10

[5] = system: Echinochloa crus-galli (ECHCG); assay: Test 1A glasshouse assay, post-emergence herbicidal activity; details: Echinochloa crus-galli, 312 h, application rate 250 g/ha, 13 days after application, visual (100%=total damage; 0%=no damage), read-out: Post-emergence Herbicidal Activity (% Phytotoxicity) ECHCG
Method in brief: (§11)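 Test species were sown in pots of standard soil and cultivated for 8 days at 24/16 °C (day/night) with 14 h light and 65% humidity. Plants were next sprayed with the formulated active ingredient (acetone/water 50:50, 0.5% Tween 20). Damage was rated visually as % phytotoxicity 13 days later.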

[6] = system: Alopecurus myosuroides (ALOMY); assay: as above; details: Alopecurus myosuroides, 312 h, application rate 250 g/ha, 13 days after application, visual (100%=total damage; 0%=no damage), read-out: Post-emergence Herbicidal Activity (% Phytotoxicity) ALOMY
Method in brief: as §11

Avena fatua (AVEFA) [7] = assay: as above; details: Avena fatua, 312 h, application rate 250 g/ha, 13 days after application, visual (100%=total damage; 0%=no damage), read-out: Post-emergence Herbicidal Activity (% Phytotoxicity) AVEFA
Method in brief: as §11

Lolium perenne (LOLPE) = assay: as above; details: Lolium perenne, 312 h, application rate 250 g/ha, 13 days after application, visual (100%=total damage; 0%=no damage), read-out: Post-emergence Herbicidal Activity (% Phytotoxicity) LOLPE
Method in brief: as §11

[8] = herbicide 30 g/ha, cloquintocet-mexyl 50 g/ha
[9] = herbicide 45 g/ha, cloquintocet-mexyl 50 g/ha
[10] = herbicide 60 g/ha, cloquintocet-mexyl 0 g/ha
[11] = herbicide 60 g/ha, cloquintocet-mexyl 50 g/ha
[12] = 30 g/ha herbicide, 50 g/ha cloquintocet-mexyl
[13] = 45 g/ha herbicide, 50 g/ha cloquintocet-mexyl
[14] = 60 g/ha herbicide, 0 g/ha cloquintocet-mexyl
[15] = 60 g/ha herbicide, 50 g/ha cloquintocet-mexyl

Row | Compound | Percentage Phytotoxicity Spring Barley “Harrington” [1, 8] [%] | Percentage Phytotoxicity Spring Barley “Harrington” [1, 9] [%] | Percentage Phytotoxicity Spring Barley “Harrington” [1, 10] [%] | Percentage Phytotoxicity Spring Barley “Harrington” [1, 11] [%] | Percentage Phytotoxicity Winter Wheat “Hereward” (Winter Wheat “Hereward”; [8]) [%] | Percentage Phytotoxicity Winter Wheat “Hereward” (Winter Wheat “Hereward”; [9]) [%] | Percentage Phytotoxicity Winter Wheat “Hereward” (Winter Wheat “Hereward”; [10]) [%] | Percentage Phytotoxicity Winter Wheat “Hereward” (Winter Wheat “Hereward”; [11]) [%] | Percentage Phytotoxicity Winter Barley “Suzuka” (Winter Barley “Suzuka”; [8]) [%] | Percentage Phytotoxicity Winter Barley “Suzuka” (Winter Barley “Suzuka”; [9]) [%] | Percentage Phytotoxicity Winter Barley “Suzuka” (Winter Barley “Suzuka”; [10]) [%] | Percentage Phytotoxicity Winter Barley “Suzuka” (Winter Barley “Suzuka”; [11]) [%] | Post-emergence herbicidal activity, percentage phytotoxicity, LOLMU [2, 12] [%] | Post-emergence herbicidal activity, percentage phytotoxicity, LOLMU [2, 13] [%] | Post-emergence herbicidal activity, percentage phytotoxicity, LOLMU [2, 14] [%] | Post-emergence herbicidal activity, percentage phytotoxicity, LOLMU [2, 15] [%] | pest or weed control at 250 g/ha [5] [%] | pest or weed control at 250 g/ha [6] [%] | pest or weed control at 250 g/ha (Avena fatua (AVEFA) [7]) [%] | pest or weed control at 250 g/ha (Lolium perenne (LOLPE)) [%] | further results
1 | Cc1cc(C)c(C2C(=O)C[C@@H](CCNC(=O)c3ccc(Br)cn3)C2=O)c(C)c1 (some centres unmarked) [Compound A120A] | 30 | 60 | 85 | 73 | 53 | 60 | 73 | 65 | 23 | 75 | 93 | 83 | 97 | 100 | 100 | 100 | – | – | – | – | Post-emergence herbicidal activity, percentage phytotoxicity, ALOMY [3, 12]: 80%; Post-emergence herbicidal activity, percentage phytotoxicity, ALOMY [3, 13]: 88%; Post-emergence herbicidal activity, percentage phytotoxicity, ALOMY [3, 14]: 95%; Post-emergence herbicidal activity, percentage phytotoxicity, ALOMY [3, 15]: 90%; Post-emergence herbicidal activity, percentage phytotoxicity, SETVI (Setaria viridis (SETVI); [12]): 100%; Post-emergence herbicidal activity, percentage phytotoxicity, SETVI (Setaria viridis (SETVI); [13]): 100%; Post-emergence herbicidal activity, percentage phytotoxicity, SETVI (Setaria viridis (SETVI); [14]): 100%; Post-emergence herbicidal activity, percentage phytotoxicity, SETVI (Setaria viridis (SETVI); [15]): 100%; Post-emergence herbicidal activity, percentage phytotoxicity, POAAN (Poa annua (POAAN); [12]): 3%; Post-emergence herbicidal activity, percentage phytotoxicity, POAAN (Poa annua (POAAN); [13]): 5%; Post-emergence herbicidal activity, percentage phytotoxicity, POAAN (Poa annua (POAAN); [14]): 30%; Post-emergence herbicidal activity, percentage phytotoxicity, POAAN (Poa annua (POAAN); [15]): 10%; Post-emergence herbicidal activity, percentage phytotoxicity, AVEFA (Avena fatua (AVEFA) [4]; [12]): 90%; Post-emergence herbicidal activity, percentage phytotoxicity, AVEFA (Avena fatua (AVEFA) [4]; [13]): 95%; Post-emergence herbicidal activity, percentage phytotoxicity, AVEFA (Avena fatua (AVEFA) [4]; [14]): 97%; Post-emergence herbicidal activity, percentage phytotoxicity, AVEFA (Avena fatua (AVEFA) [4]; [15]): 97%
2 | Cc1cc(C)c(C2C(=O)C[C@H](CCNC(=O)c3ccc(Br)cn3)C2=O)c(C)c1 (some centres unmarked) [Compound A120B] | 3 | 10 | 53 | 23 | 7 | 10 | 58 | 13 | 3 | 9 | 75 | 13 | 58 | 73 | 83 | 73 | – | – | – | – | Post-emergence herbicidal activity, percentage phytotoxicity, ALOMY [3, 12]: 43%; Post-emergence herbicidal activity, percentage phytotoxicity, ALOMY [3, 13]: 58%; Post-emergence herbicidal activity, percentage phytotoxicity, ALOMY [3, 14]: 73%; Post-emergence herbicidal activity, percentage phytotoxicity, ALOMY [3, 15]: 70%; Post-emergence herbicidal activity, percentage phytotoxicity, SETVI (Setaria viridis (SETVI); [12]): 40%; Post-emergence herbicidal activity, percentage phytotoxicity, SETVI (Setaria viridis (SETVI); [13]): 65%; Post-emergence herbicidal activity, percentage phytotoxicity, SETVI (Setaria viridis (SETVI); [14]): 68%; Post-emergence herbicidal activity, percentage phytotoxicity, SETVI (Setaria viridis (SETVI); [15]): 68%; Post-emergence herbicidal activity, percentage phytotoxicity, POAAN (Poa annua (POAAN); [12]): 0%; Post-emergence herbicidal activity, percentage phytotoxicity, POAAN (Poa annua (POAAN); [13]): 0%; Post-emergence herbicidal activity, percentage phytotoxicity, POAAN (Poa annua (POAAN); [14]): 4%; Post-emergence herbicidal activity, percentage phytotoxicity, POAAN (Poa annua (POAAN); [15]): 4%; Post-emergence herbicidal activity, percentage phytotoxicity, AVEFA (Avena fatua (AVEFA) [4]; [12]): 3%; Post-emergence herbicidal activity, percentage phytotoxicity, AVEFA (Avena fatua (AVEFA) [4]; [13]): 10%; Post-emergence herbicidal activity, percentage phytotoxicity, AVEFA (Avena fatua (AVEFA) [4]; [14]): 38%; Post-emergence herbicidal activity, percentage phytotoxicity, AVEFA (Avena fatua (AVEFA) [4]; [15]): 48%
3 | Cc1cc(C)c(C2=C(OS(=O)(=O)c3ccc(F)cc3)CC(CCNC(=O)c3ccc(Br)cn3)C2=O)c(C)c1 (centres unmarked) [Compound P19] | – | – | – | – | – | – | – | – | – | – | – | – | – | – | – | – | 100 | 100 | 100 | 100 | –
4 | CCOCOC1=C(c2c(C)cc(C)cc2C)C(=O)C(CCNC(=O)c2ccc(Br)cn2)C1 (centres unmarked) [Compound P20] | – | – | – | – | – | – | – | – | – | – | – | – | – | – | – | – | 100 | 100 | 100 | 100 | –
5 | Cc1cc(-n2cc(Cl)cn2)cc(C)c1C1=C(OC(=O)N2CCCC2)CC(CCNC(=O)c2ccccn2)C1=O (centres unmarked) [Compound P21] | – | – | – | – | – | – | – | – | – | – | – | – | – | – | – | – | 100 | 80 | 80 | 70 | –
6 | Cc1cc(C)c(C2=C(OC(=O)N3CCCC3)CC(CCNC(=O)c3ccc(Br)cn3)C2=O)c(C)c1 (centres unmarked) [Compound P22] | – | – | – | – | – | – | – | – | – | – | – | – | – | – | – | – | 100 | 90 | 100 | 100 | –
